Details: not given

| Structure (SMILES) | logP |
| --- | --- |
| Cc1cc(C)c(C)c(C)c1C | 4.56 |
| NC(=O)c1cccc(N)c1 | -0.33 |
| NC(=O)C(c1ccccc1)c1ccccn1 (centres undefined) | 0.83 |
| CCOC(=O)C(=Cc1ccc([N+](=O)[O-])cc1)C(=O)OCC | 3.03 |
| CNc1ccc([N+](=O)[O-])cc1 | 2.04 |
| CC12CCC(=O)C=C1CCC1C2C(O)CC2(C)C1CCC2(O)C(=O)COC(=O)CCCCCC(N)=O (centres undefined) | 2.3 |
| CCCOCCC | 2.03 |
| CC(C)C(N)C(=O)O (centres undefined) | -2.26 |
| c1ccc2c(c1)nnc1ccccc12 | 2.4 |
| Brc1ccc(Br)cc1 | 3.79 |
| O=C(NC(CO)C(O)c1ccc(-c2ccccc2)cc1)C(Cl)Cl (centres undefined) | 2.86 |
| CN(C)C(N(C)C)=S(I)c1ccccc1Br (centres undefined) | 0.06 |
| CCOC(=O)n1cc(F)c(=O)[nH]c1=O | -0.17 |
| CCOC(=O)C=Cc1ccc(O)c(O)c1 | 2.56 |
| COP(=S)(OC)Oc1ccc([N+](=O)[O-])c(Cl)c1 | 3.45 |
| Cc1ncc(CNC(=O)N(CCCl)N=O)c(N)n1 | 0.39 |
| CCC(=O)NN | -1 |
| COC(=O)CCCCC(C)=O | 0.55 |
| CCOC(=O)c1cccc([N+](=O)[O-])c1 | 2.35 |
| CCOP(=S)(Oc1ccc(C#N)cc1)c1ccccc1 (centres undefined) | 4.29 |
| O=NN(CCCl)C(=O)NC1CC2CCC1C2 (centres undefined) | 2.98 |

| Structure (SMILES) | logP |
| --- | --- |
| c1ccc2c(c1)ccc1c3ccc4ccccc4c3[nH]c21 | 6.4 |
| CNCc1cccnc1 | 0.39 |
| CC(=O)Nc1ccc([N+](=O)[O-])cc1 | 1.66 |
| COCC(=O)Nc1c(I)c(C(=O)NCC(O)CO)c(I)c(C(=O)N(C)CC(O)CO)c1I (centres undefined) | -2.05 |
| NC(=O)CCCCc1ccncc1 | 0.42 |
| CCCC[Si](C)(C)C | 4.2 |
| Cc1ccc(S(=O)(=O)N(C)N=O)cc1 | 0.58 |
| C[C@]12CC[C@H](O)C[C@H]1CC[C@@H]1[C@@H]2CC[C@]2(C)[C@@H](C3=CC(=O)OC3)CC[C@]12O | 2.64 |
| CC(=O)c1cc2ccccc2nn1 | 1.44 |
| C(#Cc1ccccc1)c1ccccc1 | 4.78 |
| O=C(O)CNC(=O)c1ccccc1O | 0.95 |
| COC1C(O)C(C)OC(OC2CCC3(C=O)C(CCC4C3CCC3(C)C(C5=CC(=O)OC5)CCC43O)C2)C1O (centres undefined) | 1.05 |
| CC(CO)NCc1ccccc1 (centres undefined) | 1.28 |
| COCc1ccc([N+](=O)[O-])o1 | 0.89 |
| CCOC(=O)C(=Cc1ccccc1OC)C(C)=O | 2.39 |
| COC(=O)C(=O)OC | -0.17 |
| CC1CC(C)CN(N=O)C1 (centres undefined) | 1.53 |
| O=c1ccn(C2OC(CO)C(O)C2O)c(=O)[nH]1 (centres undefined) | -1.98 |
| COP(=O)(OC)OC=C(Cl)Cl | 1.43 |
| [O-][n+]1ccccc1 | -1.2 |
| O=C(N/N=C/c1cc[nH]c1)Nc1ccccc1 | 2.96 |

| Structure (SMILES) | logP |
| --- | --- |
| C1=CCCC=CCC1 | 3.16 |
| COC(=O)c1cc(O)c(O)c(O)c1 | 0.86 |
| CCN(N=O)C(N)=O | 0.23 |
| CCc1nnc(NS(=O)(=O)c2ccc(N)cc2)s1 | 1.01 |
| CCC(=O)C1(c2cccc(OC(=O)OCC(C)C)c2)CCN(C)CC1 | 2.38 |
| C=CCCC(C)=O | 1.02 |
| CC(C)NC(C)(C)C | 1.56 |
| O=C(O)c1ccc(F)cc1 | 2.07 |
| OCc1ccoc1 | 0.3 |
| O=C(O)Cc1ccccc1Nc1cc(Cl)ccc1Cl | 4.94 |
| O=C(O)c1ccc(O)c([N+](=O)[O-])c1 | 1.85 |
| CCCCOC(=O)c1ccc(C(=O)OCCCC)cc1 | 5.53 |
| O=C(O)C1Cc2cc(Cl)ccc2O1 (centres undefined) | 2.11 |
| CCCC[N+](=O)[O-] | 1.47 |
| CC=CC (mixture of isomers) | 2.33 |
| CCCc1cc(OC)c(CC(C)N)cc1OC (centres undefined) | 3.37 |
| O=C(Nc1ccc(Br)cc1)C(F)(F)F | 3.34 |
| CN(C)c1ccc(C(=C2C=CC(=[N+](C)C)C=C2)c2ccccc2)cc1.[Cl-] | 0.62 |
| Nc1ccc2ncccc2c1 | 1.28 |
| c1cnn(C23CC4CC(CC(C4)C2)C3)c1 | 3.05 |
| CCCCOc1cccc(OC(=O)NC)c1 | 2.96 |

Same assay, conditions: pH 7.2

| Structure (SMILES) | logD |
| --- | --- |
| COC(=O)C(c1ccccc1)C1CCCCN1 (centres undefined) | 0.2 |

From the OPERA property sets (Mansouri et al. 2018)
